From US7135466B2 (Kirin Beer Kabushiki Kaisha, priority 1999, dated 2006)
Where two headings read alike, the source gives them in different places.

Tests used:
PDGF-Ra = target: T1, PDGF-Ra (Homo sapiens, UniProt P16234); assay: Inhibitory activity against PDGF-Ra phosphorylation by PDGF-AA stimulation using G292; assay type: cell-based; details: for IC50: > means inhibition at indicated concentration not more than 50%, < and << not less than 50%, read-out: PDGF (E) IC50; for inhibition at 0.1 µM: G292, figure within parentheses in >100( ), at 100 nM, read-out: PDGF (E) inhibition (%) at 100 nM
T1 construct: host or cells: G-292 human osteosarcoma cells
T1 sequence (P16234 24-1089): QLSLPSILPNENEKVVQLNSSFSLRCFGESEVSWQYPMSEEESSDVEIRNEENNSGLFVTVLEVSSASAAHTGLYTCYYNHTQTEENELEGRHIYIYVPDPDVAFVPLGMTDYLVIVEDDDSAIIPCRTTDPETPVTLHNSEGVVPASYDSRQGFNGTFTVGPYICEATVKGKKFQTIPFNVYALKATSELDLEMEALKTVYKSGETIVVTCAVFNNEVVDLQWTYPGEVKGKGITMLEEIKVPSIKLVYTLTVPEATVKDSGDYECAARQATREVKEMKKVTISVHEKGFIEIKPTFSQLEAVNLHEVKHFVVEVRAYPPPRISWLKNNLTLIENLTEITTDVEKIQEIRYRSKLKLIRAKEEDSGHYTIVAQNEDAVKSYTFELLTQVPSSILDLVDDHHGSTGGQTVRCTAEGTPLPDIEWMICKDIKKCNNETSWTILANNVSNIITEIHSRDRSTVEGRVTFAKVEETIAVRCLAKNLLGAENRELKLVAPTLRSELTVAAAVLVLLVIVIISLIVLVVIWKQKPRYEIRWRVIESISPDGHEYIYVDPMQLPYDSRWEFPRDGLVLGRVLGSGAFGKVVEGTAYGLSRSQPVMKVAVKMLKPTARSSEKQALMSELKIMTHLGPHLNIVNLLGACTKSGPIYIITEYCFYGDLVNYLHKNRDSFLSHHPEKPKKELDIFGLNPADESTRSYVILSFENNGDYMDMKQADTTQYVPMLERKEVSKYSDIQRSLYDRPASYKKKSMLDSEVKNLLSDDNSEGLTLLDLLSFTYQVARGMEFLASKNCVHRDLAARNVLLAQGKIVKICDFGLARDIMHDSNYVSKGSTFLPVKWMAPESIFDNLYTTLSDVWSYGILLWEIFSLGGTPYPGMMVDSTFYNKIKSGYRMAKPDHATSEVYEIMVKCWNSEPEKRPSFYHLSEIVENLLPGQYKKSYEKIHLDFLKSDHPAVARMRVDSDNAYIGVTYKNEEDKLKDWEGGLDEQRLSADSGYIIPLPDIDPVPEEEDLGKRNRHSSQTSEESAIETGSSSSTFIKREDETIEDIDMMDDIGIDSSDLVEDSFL
Outline: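 G-292 human osteosarcoma cells in 0.1% FBS medium overnight, given compound for 1 hr at 37° C, then PDGF-AA 50 ng/ml for 5 min. Lysates captured on anti-phosphotyrosine (PY-20) plates and probed with anti-PDGF-Ra plus HRP secondary; absorbance at 450 nm.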

c-kit = target: T2, c-kit (Homo sapiens, UniProt P10721); assay: Inhibitory activity against c-kit autophosphorylation (MO7e cells, h-SCF); assay type: cell-based; details: for IC50: MO7e cells, read-out: c-kit IC50
T2 construct: MO7e (human megakaryocytic leukemia cell line) which had been arrested for 20 hr; endogenous in cells; host or cells: MO7e human megakaryocytic leukemia cell line
T2 sequence (P10721 26-976): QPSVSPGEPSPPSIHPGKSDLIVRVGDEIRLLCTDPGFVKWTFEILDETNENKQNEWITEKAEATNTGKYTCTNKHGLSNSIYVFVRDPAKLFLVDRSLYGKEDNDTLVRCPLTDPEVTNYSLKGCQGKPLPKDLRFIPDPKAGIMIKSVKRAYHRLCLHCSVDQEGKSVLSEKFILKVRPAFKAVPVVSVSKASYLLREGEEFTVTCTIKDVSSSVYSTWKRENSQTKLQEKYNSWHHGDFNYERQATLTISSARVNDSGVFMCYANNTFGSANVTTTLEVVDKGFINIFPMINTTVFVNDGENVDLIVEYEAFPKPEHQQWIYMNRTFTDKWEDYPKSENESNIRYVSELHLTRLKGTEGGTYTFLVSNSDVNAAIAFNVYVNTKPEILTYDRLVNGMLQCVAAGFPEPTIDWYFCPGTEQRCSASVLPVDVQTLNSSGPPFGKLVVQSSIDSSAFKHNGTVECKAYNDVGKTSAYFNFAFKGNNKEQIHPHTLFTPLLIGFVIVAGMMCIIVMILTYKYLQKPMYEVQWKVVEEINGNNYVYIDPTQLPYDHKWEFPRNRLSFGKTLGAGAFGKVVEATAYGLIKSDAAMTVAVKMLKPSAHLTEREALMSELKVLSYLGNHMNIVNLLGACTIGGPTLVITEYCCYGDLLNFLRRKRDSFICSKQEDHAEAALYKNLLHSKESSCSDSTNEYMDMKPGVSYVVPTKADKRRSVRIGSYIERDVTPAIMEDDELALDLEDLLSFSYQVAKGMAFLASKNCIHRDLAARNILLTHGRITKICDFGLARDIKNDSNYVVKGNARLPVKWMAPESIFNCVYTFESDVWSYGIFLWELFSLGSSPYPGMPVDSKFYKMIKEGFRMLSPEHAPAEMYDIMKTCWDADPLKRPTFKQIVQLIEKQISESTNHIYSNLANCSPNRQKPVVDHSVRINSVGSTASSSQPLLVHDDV
Outline: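 In this cellular autophosphorylation assay, compound-treated MO7e cells (1 hr) were challenged with human stem cell factor at 50 ng/ml for 5 min; detection relied on PY-20 capture and anti-c-kit/HRP immunodetection at 450 nm.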

## COc1cc2ncnc(Oc3ccc(NC(=O)OCc4ccc(C(C)(C)C)cc4)cc3)c2cc1OC [Example 60, 4-(Tert-butyl)benzyl N-{4-[(6,7-dimethoxy-4-quinazolinyl)oxy]phenyl}carbamate]
PDGF-Ra; Pharmacological Test Example 1
  IC50: < 10 nM
c-kit; h-SCF 50 ng/ml
  IC50: 261 nM

## COc1cc2ncnc(Oc3ccc(NC(=S)NC(=O)CCCCl)cc3)c2cc1OC [Example 1186, N-(4-Chlorobutanoyl)-N′-{4-[(6,7-dimethoxy-4-quinazolinyl)oxy]phenyl}thiourea]
PDGF-Ra
  IC50: < 10 nM
c-kit; h-SCF stimulation
  IC50: 405 nM

## COc1cc2nccc(Oc3ccc(NC(=O)NC4CCN(Cc5ccccc5)C4)cc3)c2cc1OC (stereo not drawn) [Example 560, N-(1-Benzyltetrahydro-1H-3-pyrrolyl)-N′-{4-[(6,7-dimethoxy-4-quinolyl)oxy]phenyl}urea]
PDGF-Ra
  IC50: 12 nM
c-kit; 50 ng/ml h-SCF
  IC50: 107 nM

## COc1cc2nccc(Oc3cc(C)c(NC(=O)NCCN4CCCCC4)cc3C)c2cc1OC [Example 674, N-{4-[(6,7-Dimethoxy-4-quinolyl)oxy]-2,5-dimethylphenyl}-N′-(2-piperidinoethyl)urea]
PDGF-Ra
  IC50: > 100 nM
  inhibition at 0.1 µM: 43%
c-kit; 50 ng/ml h-SCF
  IC50: 854 nM

## COc1ccc(OCCCOC(=O)Nc2ccc(Oc3ccnc4cc(OC)c(OC)cc34)cc2)cc1 [Example 42, 3-(4-Methoxyphenoxy)propyl N-{4-[(6,7-dimethoxy-4-quinolyl)oxy]phenyl}carbamate]
PDGF-Ra; Pharmacological Test Example 1
  IC50: < 10 nM
c-kit; h-SCF 50 ng/ml
  IC50: 73 nM

## CCCCN(CCCC)CCCNC(=S)Nc1cc(C)c(Oc2ccnc3cc(OC)c(OC)cc23)cc1C [Example 552, N-{4-[(6,7-Dimethoxy-4-quinolyl)oxy]-2,5-dimethylphenyl}-N′-(3-dibutylaminopropyl)thiourea]
PDGF-Ra
  IC50: > 100 nM
  inhibition at 0.1 µM: 10%
c-kit; Mo7e, figure within parentheses in −( ) or >1000( ), at 1000 nM
  inhibition at 1 µM: 28%

## CCN(CCNC(=O)Nc1ccc(Oc2ccnc3cc(OC)c(OC)cc23)cc1Cl)c1cccc(C)c1 [Example 669, N-{2-Chloro-4-[(6,7-dimethoxy-4-quinolyl)oxy]phenyl}-N′-[2-(ethyl-3-methylanilino)ethyl]urea]
PDGF-Ra
  IC50: 23 nM
c-kit; 50 ng/ml h-SCF
  IC50: 134 nM

## CCN(CCNC(=S)Nc1ccc(Oc2ncnc3cc(OC)c(OC)cc23)cc1)c1ccccc1C [Example 528]
PDGF-Ra
  IC50: 33 nM
c-kit; 50 ng/ml h-SCF
  IC50: 343 nM

## COc1cc2ncnc(Oc3ccc(NC(=O)NCCN(C)C)cc3)c2cc1OC [Example 627, N-{4-[(6,7-Dimethoxy-4-quinazolinyl)oxy]phenyl}-N′-[2-(dimethylamino)ethyl]urea]
PDGF-Ra
  IC50: 65 nM
c-kit; 50 ng/ml h-SCF
  IC50: 774 nM

## COc1cc2nccc(Oc3ccc(NCCOc4c(C)cccc4C)cc3C)c2cc1OC [Example 881, N-{4-[(6,7-Dimethoxy-4-quinolyl)oxy]-3-methylphenyl}-N-[2-(2,6dimethylphenoxy)ethyl]amine]
PDGF-Ra
  IC50: > 30 nM
PDGF-Ra; figure in parentheses in >30( ), concentration not defined in key (presumably 30 nM)
  PDGF (E) inhibition (%), figure in parentheses in >30( ): 29%
c-kit; h-SCF stimulation
  IC50: 346 nM

## COc1cc2nccc(Oc3ccc(NC(=S)NC(=O)c4cccc(Br)c4)c(Cl)c3)c2cc1OC [Example 1165, N-(3-Bromobenzoyl)-N′-{2-chloro-4-[(6,7-dimethoxy-4-quinolyl)oxy]phenyl}thiourea]
PDGF-Ra
  IC50: > 100 nM

## COc1cc2nccc(Oc3cc(C)c(NC(=O)OC(c4ccccc4)C(C)C)cc3C)c2cc1OC (stereo not drawn) [Example 197, 2-Methyl-1-phenylpropyl N-{4-[(6,7-dimethoxy-4-quinolyl)oxy]-2,5-dimethylphenyl}carbamate]
PDGF-Ra; Pharmacological Test Example 1
  IC50: 93 nM

## COc1cc2nccc(Oc3ccc(NC(=S)NC(=O)C(OC)c4ccccc4)cc3Cl)c2cc1OC (stereo not drawn) [Example 762, N-{3-Chloro-4-[(6,7-dimethoxy-4-quinolyl)oxy]phenyl}-N′-(2-methoxy-2-phenylacetyl)thiourea]
PDGF-Ra
  IC50: > 100 nM

## COc1cc2nccc(Oc3ccc(NC(=S)NC(=O)CCCCc4ccccc4)cc3)c2cc1OC [Example 727, N-{4-[(6,7-Dimethoxy-4-quinolyl)oxy]phenyl}-N′-(5-phenylpentanoyl)thiourea]
PDGF-Ra
  IC50: 52 nM

## COc1cc2nccc(Oc3ccc(NC(=S)NC(=O)[C@H](C)c4ccccc4)cc3Cl)c2cc1OC [Example 744, N-{3-Chloro-4-[(6,7-dimethoxy-4-quinolyl)oxy]phenyl}-N′-[(2R)-2-phenylpropanoyl]thiourea]
PDGF-Ra
  IC50: 40 nM

## COc1cc2nccc(Oc3ccc(NC(=O)OCCN(C)C)c(C)c3C)c2cc1OC [Example 189, 2-(Dimethylamino)ethyl N-{4-[(6,7-dimethoxy-4-quinolyl)oxy]-2,3-dimethylphenyl}carbamate]
PDGF-Ra; Pharmacological Test Example 1
  IC50: 57 nM

## CCCCCOc1ccc(C(=O)NC(=S)Nc2ccc(Oc3ccnc4cc(OC)c(OC)cc34)c(Cl)c2)cc1 [Example 754, N-{3-Chloro-4-[(6,7-dimethoxy-4-quinolyl)oxy]phenyl}-N′-[4-(pentyloxy)benzoyl]thiourea]
PDGF-Ra
  IC50: > 100 nM
  inhibition at 0.1 µM: 7%

## 1-[3-(Trifluoromethoxy)phenyl]ethyl N-{4-[(6,7-dimethoxy-4-quinolyl)oxy]-2,3-dimethylphenyl}carbamate [Example 181]
PDGF-Ra; Pharmacological Test Example 1
  IC50: > 100 nM

## CCC(Oc1ccccc1)C(=O)NC(=S)Nc1ccc(Oc2ccnc3cc(OC)c(OC)cc23)cc1 (stereo not drawn) [Example 741, N-{4-[(6,7-Dimethoxy-4-quinolyl)oxy]phenyl}-N′-(2-phenoxybutanoyl)thiourea]
PDGF-Ra
  IC50: 49 nM

## COc1cc2ncnc(Oc3ccc(NC(=S)NC(=O)CCCCCl)cc3)c2cc1OC [Example 1170, N-(5-Chloropentanoyl)-N′-{4-[(6,7-dimethoxy-4-quinazolinyl)oxy]phenyl}thiourea]
PDGF-Ra
  IC50: < 10 nM

## COc1cc2nccc(Oc3ccc(NC(=O)NN4CCCCC4)c(C)c3C)c2cc1OC [Example 593, N-{4-[(6,7-Dimethoxy-4-quinolyl)oxy]-2,3-dimethylphenyl}-N′-(1-piperidinyl)urea]
PDGF-Ra
  IC50: 51 nM

## C#CCC(CC)OC(=O)N(C)c1ccc(Oc2ncnc3cc(OC)c(OC)cc23)cc1 (stereo not drawn) [Example 495, 1-Ethyl-3-butynyl N-{4-[(6,7-dimethoxy-4-quinazolinyl)oxy]phenyl}-N-methylcarbamate]
PDGF-Ra
  IC50: 65 nM

## COc1cc2ncnc(Oc3ccc(NC(=S)NC(=O)c4cc(Cl)cc(Cl)c4)cc3)c2cc1OC [Example 1158, N-(3,5-Dichlorobenzoyl)-N′-{4-[(6,7-dimethoxy-4-quinazolinyl)oxy]phenyl}thiourea]
PDGF-Ra
  IC50: 46 nM

## CCCC(CCC)OC(=O)N(CC)c1ccc(Oc2ncnc3cc(OC)c(OC)cc23)cc1Cl [Example 488, 1-Propylbutyl N-{2-chloro-4-[(6,7-dimethoxy-4-quinazolinyl)oxy]phenyl}-N-ethylcarbamate]
PDGF-Ra
  IC50: 98 nM

## COc1cc2nccc(Oc3cc(C)c(NC(=O)OCCOc4ccccc4F)cc3C)c2cc1OC [Example 205, 2-(2-Fluorophenoxy)ethyl N-{4-[(6,7-dimethoxy-4-quinolyl)oxy]-2,5-dimethylphenyl}carbamate]
PDGF-Ra; Pharmacological Test Example 1
  IC50: 78 nM

## COc1cc2nccc(Oc3cc(C)c(NC(=O)Oc4cccc(C#N)c4)cc3C)c2cc1OC [Example 458, 3-Cyanophenyl N-{4-[(6,7-dimethoxy-4-quinolyl)oxy]-2,5-dimethylphenyl}carbamate]
PDGF-Ra
  IC50: > 100 nM
  inhibition at 0.1 µM: 18%

## COc1ccc(CCC(=O)NC(=S)Nc2ccc(Oc3ccnc4cc(OC)c(OC)cc34)c(Cl)c2)cc1OC [Example 712, N-{3-Chloro-4-[(6,7-dimethoxy-4-quinolyl)oxy]phenyl}-N′-[3-(3,4-dimethoxyphenyl)propanoyl]thiourea]
PDGF-Ra
  IC50: 83 nM

## COc1cc2nccc(Oc3ccc(NC(=S)NNC4CCCCC4)c(C)c3C)c2cc1OC [Example 520, N-{4-[(6,7-Dimethoxy-4-quinolyl)oxy]-2,3-dimethylphenyl}-N′-(N-cyclohexylamino)thiourea]
PDGF-Ra
  IC50: > 100 nM
  inhibition at 0.1 µM: 43%

## COc1cc2nccc(Oc3ccc(NC(=O)ON4C(=O)c5ccccc5C4=O)cc3)c2cc1OC [Example 416, 1,3-Dioxo-2,3-dihydro-1H-2-isoindolyl N-{4-[(6,7-dimethoxy-4-quinolyl)oxy]phenyl}carbamate]
PDGF-Ra
  IC50: > 100 nM
  inhibition at 0.1 µM: 49%

## COc1cc2ncnc(Oc3ccc(NC(=O)OCC4CCC4)c(Cl)c3)c2cc1OC [Example 389, Cyclobutylmethyl N-{2-chloro-4-[(6,7-dimethoxy-4-quinazolinyl)oxy]phenyl}carbamate]
PDGF-Ra; Pharmacological Test Example 1
  IC50: 51 nM

## CCN(C(=S)NC(=O)CCc1ccccc1OC)c1ccc(Oc2ccnc3cc(OC)c(OC)cc23)cc1 [Example 1142, N-{4-[(6,7-Dimethoxy-4-quinolyl)oxy]phenyl}-N-ethyl-N′-[3-(2-methoxyphenyl)propanoyl]thiourea]
PDGF-Ra
  IC50: 80 nM

## COc1cc2ncnc(Oc3ccc(NC(=O)OC(c4ccccc4)C(C)C)cc3)c2cc1OC (stereo not drawn) [Example 198, 2-Methyl-1-phenylpropyl N-{4-[(6,7-dimethoxy-4-quinazolinyl)oxy]phenyl}carbamate]
PDGF-Ra; Pharmacological Test Example 1
  IC50: 21 nM

## COc1cc2nccc(Oc3ccc(NC(=S)NC(=O)c4ccc(Br)cc4)c(Cl)c3)c2cc1OC [Example 1167, N-(4-Bromobenzoyl)-N′-{2-chloro-4-[(6,7-dimethoxy-4-quinolyl)oxy]phenyl}thiourea]
PDGF-Ra
  IC50: > 100 nM

## COc1cc2ncnc(Oc3ccc(NC(=O)OC(C)c4ccc(F)cc4)c(Cl)c3)c2cc1OC (stereo not drawn) [Example 106, 1-(4-Fluorophenyl)ethyl N-{2-chloro-4-[(6,7-dimethoxy-4-quinazolinyl)oxy]phenyl}carbamate]
PDGF-Ra; Pharmacological Test Example 1
  IC50: 12 nM
